Values quoted from earlier work, collected in patent US20240207251A1, “PHARMACEUTICAL COMPOSITION CONTAINING ARTESUNATE OR SALT THEREOF AND PYRONARIDINE OR SALT THEREOF, FOR ANTIPYRESIS, ANTI-INFLAMMATORY EFFICACY, ANTI-VIRAL EFFICACY AND TREATMENT OR PREVENTION OF COVID-19, AND METHOD USING SAME” (priority 2021, published 2024).

Columns and labels:
SARS-COV 2 = conditions: reported by Joon-Yong Bae et al., bioRxiv, Jul. 28, 2020
influenza virus = conditions: reported by Joon-Yong Bae et al., bioRxiv, Jul. 28, 2020

Compound	in vitro anti-viral action on COVID-19 (SARS-COV 2)	in vitro anti-viral action on influenza (influenza virus)
C[C@H]1[C@H](OC(=O)CCC(=O)O)O[C@@H]2O[C@@]3(C)CC[C@H]4[C@H](C)CC[C@@H]1[C@@]24OO3 [artesunate, dihydroartemisinine-12-alpha-succinate]	in vitro anti-viral action	in vitro anti-viral action
COc1ccc2nc3cc(Cl)ccc3c(Nc3cc(CN4CCCC4)c(O)c(CN4CCCC4)c3)c2n1 [pyronaridine, 4-[(7-chloro-2-methoxybenzo[b]-1,5-naphthyridin-10-yl)amino]-2,6-bis(1-pyrrolidinylmethyl)phenyl]	in vitro anti-viral action	in vitro anti-viral action
